# In patent US5451600A, “Substituted tetrahydrobenzopyrrolylfuranoic acid derivatives as phospholipase A2 inhibitors” (Hoffmann-La Roche Inc., priority 1994, dated 1995):
# Where two headings read alike, the source gives them in different places.
# Tests used:
# [1] = tested on: cellular PLA2; assay: Inhibition of Cellular Phospholipase A2 (A23187-stimulated macrophages); type: cell-based; conditions: rat peritoneal macrophages, A-23187 stimulated
# Method: II. Inhibition of Cellular Phospholipase A2. - % Inhibition of Cellular PLA2
# Resident macrophages were obtained from rats by peritoneal lavage with phosphate buffered saline minus Ca2^++ and Mg2^++ (PBS). Cells were washed 3 times with PBS and resuspended in Dulbecco's Modified Eagle's Medium (GiBco) containing L-glutamine low D-glucose (1000 mg/L), and sodium pyruvate (110 mg/L), supplemented with 10% fetal calf serum. Cells were counted on a Coulter ZBI cell counter and then resuspended to a concentration of 6×10^6 cells/1.5 ml. The cell suspension (1.5 ml culture dishes (35 mm) and the cells were allowed to adhere to the dishes for 90 minutes at 37° C. Dishes were washed 3 times with PBS to remove non-adherent cells. [^14 C]arachidonic acid ([^14 C]-AA, approximately […], were added to the cells (1 uCi/dish) and allowed to incorporate for 120 minutes. Medium containing unincorporated [^14 C]-AA was removed and the cell layer was again washed 3 times with PBS. Inhibitors were dissolved in dimethylsulfoxide (DMSO) and added directly to the macrophages in Hank's Balanced Salt Solution (GiBco) phosphate-buffered, pH 7.4) to obtain the desired final concentration. Cells were incubated with drug or DMSO for 30 minutes at 37° C. and were then stimulated with calcium-ionophore A-23187 (0.75 uM) for 20 minutes. The extracellular medium was removed and the [^14 C] radioactivity released into this medium from AA metabolism was measured by liquid scintillation spectroscopy. The amounts of LTB4 and PGE2 were measured in the extracellular medium by radio immunoassay with specific antisera. The effects of inhibitor were measured as percent inhibition of A23187- stimulated AA metabolite release (^14 C release, PGE2 and LTB4 production) (control) which were calculated from the formula: [formula] IC50 's were calculated as described in the HSF-PLA2 assay.
# [2] = tested on: carrageenan-induced paw edema in rats; assay: Carrageenan-induced paw edema model of inflammation; type: in vivo; conditions: 2 hr, rat, read-out: Carrageenan ind. paw edema % Inhib. 2 hr; for inhibition in vivo at 100 mg/kg: 100 mg/Kg po; for inhibition in vivo at 3 mg/kg: 3 mg/Kg ip
# [3] = tested on: PLA2-induced rat paw edema (PLA2 purified from Naja naja snake venom); assay: PLA2-induced rat paw edema model of inflammation; type: in vivo
# [4] = tested on: adjuvant-induced arthritis in male Lewis rats; assay: Established adjuvant-induced arthritis test; type: in vivo, rat; conditions: day 28 minus day 21, vehicle value in parentheses
# Method: IV. Adjuvant-induced Arthritis
# Male Lewis rats (120-140 g) received 0.1 mg myeobacterium brityricum (0.5% ow/v) heavy mineral oil containing 0.2% digitonin administered in the base of the tail and the resulting arthritis was allowed to develop for 21 days (Coffey and Salvador, 1981). The combinded volumes of both hind paws were measured using a water plethysmograph by immersion of the paws to the level of the lateral malleolus. The animals were divided into drug-treatedand vehicle (control) groups (six rats per group) with approximately equal volumes of both hind paws. On day 21, body weights were recorded and the i.p. or p.o. vehicle and drug were then administered daily for seven days. On day 28, the final day of the experiment, heparinized (0.2 units/100 μl) blood was also collected for measurement of plasma fibrinogen concentrations (Goodwin, 1961). The changes in paw volume and body weight were calculated as paw volume or body weight at day 28 minus paw volume or body weight at day 21. Values are reported as means ± S.E. for n=6. Plasma fibrinogen concentration was quantitated according to Goodwin et al. (1961) and is expressed in mg/dl. Statistical differences between measurement parameters of the drug-treated and control groups were determined using Students's t-test.
# [5] = biological target: T1, PLA2 activity in human synovial fluid (HSF) (Homo sapiens, UniProt P14555); assay: Phospholipase A2 (PLA2) enzymatic assay - % Inhibition of HSF-PLA2; type: biochemical; conditions: for IC50: human synovial fluid PLA2, 30 min at 37° C., pH 7.3; for inhibition at 5 µM: read-out: % Inhib. of HSF-PLA2 at 5 μM
# T1 construct: Synovial fluid was obtained from patients with rheumatoid arthritis; from tissue; host or cells: cell-depleted synovial fluid of patients with rheumatoid arthritis
# T1 sequence (P14555 21-144): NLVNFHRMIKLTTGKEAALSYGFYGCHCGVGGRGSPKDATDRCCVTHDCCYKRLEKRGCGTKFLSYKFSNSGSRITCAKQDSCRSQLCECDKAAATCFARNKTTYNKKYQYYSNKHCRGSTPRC
# Description: 1, Phospholipase A2 (PLA2) enzymatic assay - % Inhibition of HSF-PLA2
# PLA2 assay procedure described by Hope et al., Inflammation 14:543-559 (1.990) was utilized to measure the inhibitory activity of the invention (inhibitor) against PLA2 activity in human synovial fluid (HSF). Synovial fluid was obtained from patients with rheumatoid arthritis. The assay procedure measured the release of [1-^14 C]oleic acid from the sn-2 position of phospholipids in autoclaved Escherichia coli previously grown in media containing [1-^14 C]oleic acid. The standard assay reaction conditions included 1×10^9 Escherichia coil (10,000 dpm ^14 C), 0.15% (v/v) cell-depleted HSF, (which was equivalent to 66 μg protein/mL) 2 mM CaCl2, 150 mM NaCl, 50 mM sodium (N-[2-hydroxyethyl] piperazine-N'-[2-ethanesulfonate]) (HEPES) buffer (pH 7.3), 1% dimethyl sulfoxide (DMSO) and various concentrations of inhibitor in a total volume of 0.5 ml. Inhibitors were dissolved in DMSO and added. The reaction was initiated by addition of HSF, incubated for 30 min at 37° C. and then stopped by addition of 2.5 ml of chloroform/methanol (1:1.5, v/v). The total lipids were extracted by the method of Bligh, E. G., and Dyer, W. J, Can. J. Biochem. Physiol. 37:911-917 (1959) by the further addition of 0.5 mL of chloroform and 1 mL of water with mixing. The lipid extract was redissolved in chloroform/methanol (9:1, v/v) containing 10 ug of carrier oleic acid. The oleic acid was separated from phospholipids by thin layer chromatography using gel-impregnated glass fiber sheets (ITLC type SG sheets). The sheets were preactivated by heating at 110° C. for 30 min. The lipid extract was applied to the sheets and chromatographed for 6 minutes, using hexane/acetic acid (100:1, v/v). The positions on the sheet containing oleic acid and phospholipids were visualized by exposure to iodine vapor and located by comparison to standards. The oleic acid and phospholipid zones were cut from the sheets, shaken individually with 2 ml of ethanol/water (80:20, v/v) and 15 ml of Aquasol, then counted for [^14 C] radioactivity (dpm). PLA2 activity, expressed as percent hydrolysis, was calculated from the formula: [formula] and was corrected for nonenzymatic hydrolysis of the substrate. Percent inhibition due to the presence of drug was calculated from the formula: [formula]
# When various concentrations of a Compound of Formula I were tested, the percent inhibition at each concentration was plotted as log concentration (abscissa) versus percent inhibition (ordinate) and the IC50 was determined from this plot.
smiles,measurement,setting,value
"CCCCCCCCn1c2c(c3cc(/C=C/c4ccc(C(=O)O)o4)ccc31)CCCC2(C)C [Example 44, (E)-5-[2-(1,2,3,4-tetrahydro-1,1-dimethyl-9-octyl-9H-dibenzo[b,d]pyrrol-6-yl)ethenyl]-2-furancarboxylic acid]",% Inhib. of cellular PLA2 at 5 μM,[1],62%
same,IC50,[1],4 µM
same,inhibition in vivo at 10 mg/kg,[2]; 10 mg/Kg ip,57%
same,inhibition in vivo at 100 mg/kg,[2],36%
same,PLA2-ind. paw edema % Inhib 2 hr,[3]; 30 mg/Kg ip,71%
same,PLA2-ind. paw edema % Inhib 2 hr,[3]; 100 mg/Kg po,27%
same,Change of body wt. (vehicle),[4]; 30 mg/Kg po daily seven days,5 g
same,Change of paw volume (vehicle),[4]; 30 mg/Kg po daily seven days,0.68 mL
same,IC50,[5],2.5 µM
same,inhibition at 5 µM,[5],71%
"CCCCCCCCn1c2c(c3cc(Oc4ccc(C(=O)O)o4)ccc31)CCCC2 [Example 132, 5-[(1,2,3,4-tetrahydro-9-octyl-9H-dibenzo[b,d]pyrrol-6-yl)oxy]-2-furancarboxylic acid]",% Inhib. of cellular PLA2 at 5 μM,[1],97%
same,IC50,[1],1 µM
same,inhibition in vivo at 3 mg/kg,[2],45%
same,inhibition in vivo at 100 mg/kg,[2],65%
same,PLA2-ind. paw edema % Inhib 2 hr,[3]; 100 mg/Kg po,34%
same,Change of body wt. (vehicle),[4]; 10 mg/Kg po daily seven days,13 g
same,Change of paw volume (vehicle),[4]; 10 mg/Kg po daily seven days,0.48 mL
same,IC50,[5],4 µM
same,inhibition at 5 µM,[5],79%
"CCCCCCCCn1c2c(c3cc(/C=C\c4ccc(C(=O)O)o4)ccc31)CCCC2 [Example 51, (Z)-5-[2-(1,2,3,4-tetrahydro-9-octyl-9H-dibenzo[b,d]pyrrol-6-yl)ethenyl]-2-furancarboxylic acid]",% Inhib. of cellular PLA2 at 5 μM,[1],85%
same,IC50,[1],2 µM
same,inhibition in vivo at 1 mg/kg,[2]; 1 mg/Kg ip,70%
same,inhibition in vivo at 100 mg/kg,[2],72%
same,Change of body wt. (vehicle),[4]; 10 mg/Kg po daily seven days,6 g
same,Change of paw volume (vehicle),[4]; 10 mg/Kg po daily seven days,0.71 mL
same,IC50,[5],4 µM
same,inhibition at 5 µM,[5],67%
"CCCCCCCCn1c2c(c3cc(Cc4ccc(C(=O)O)o4)ccc31)CCCC2 [Example 160, 5-[(1,2,3,4-tetrahydro-9-octyl-9H-dibenzo[b,d]pyrrol-6-yl)methyl]-2-furancarboxylic acid]",% Inhib. of cellular PLA2 at 5 μM,[1],94%
same,inhibition in vivo at 3 mg/kg,[2],46%
same,inhibition in vivo at 10 mg/kg,[2]; 10 mg/Kg po,50%
same,PLA2-ind. paw edema % Inhib 2 hr,[3]; 30 mg/Kg ip,49%
same,Change of body wt. (vehicle),[4]; 30 mg/Kg po daily seven days,4 g
same,Change of paw volume (vehicle),[4]; 30 mg/Kg po daily seven days,0.47 mL
same,inhibition at 5 µM,[5],49%
"CCCCCCCCn1c2c(c3cc(/C=C/c4ccc(C(=O)O)o4)ccc31)CCCC2 [Example 43, (E)-5-[2-(1,2,3,4-tetrahydro-9-octyl-9H-dibenzo[b,d]pyrrol-6-yl)ethenyl]-2-furancarboxylic acid]",IC50,[1],0.5 µM
same,inhibition in vivo at 50 mg/kg,[2]; 50 mg/Kg ip,40%
same,inhibition in vivo at 100 mg/kg,[2],29%
same,PLA2-ind. paw edema % Inhib 2 hr,[3]; 50 mg/Kg ip,60%
same,Change of body wt. (vehicle),[4]; 10 mg/Kg ip daily seven days,12 g
same,Change of paw volume (vehicle),[4]; 10 mg/Kg ip daily seven days,-0.18 mL
same,Change of body wt. (vehicle),[4]; 100 mg/Kg po daily seven days,12 g
same,Change of paw volume (vehicle),[4]; 100 mg/Kg po daily seven days,-0.29 mL
same,inhibition at 10 µM,"[5]; 10 μM (footnote a), read-out: % Inhib. of HSF-PLA2 (a: % Inhibition at 10 μM)",90%
same,IC50,[5],6 µM
